According to patent publication US11786513B2, “Compositions comprising berberine” (INDENA S.P.A., priority 2018, dated 2023):

Columns and labels:
[1] = oral administration; cited from earlier work
[2] = Solubility test in simulated biological fluids (FaSSGF), UPLC; assay type: physicochemical; details: Fasted-State Simulated Gastric Fluid (FaSSGF), fassgf or other biorelevant, thermodynamic from solid, pH 1.6, samples containing equal amounts of BBR
Description: The solubility test was conducted by comparing samples containing equal amounts of BBR. […] The analysis was conducted by the UPLC (Ultra High Performance Liquid Chromatography) method described below: ANALYSIS CONDITIONS: Flow rate: 0.4 ml/minute; Detection: 348 nm. SAMPLE SOLUTION: 30 mg in 200 ml (Chromatogram of a typical sample of ˜0.15 mg/ml, in FIG. 1). STANDARD SOLUTION: 10 mg of pure reference BBR in 200 ml of methanol (Standard solution ˜0.05 mg/ml, typical chromatogram in FIG. 2). The solubility test was conducted using Fasted-State Simulated Gastric Fluid (FaSSGF), prepared as reported below, as solvent. 1) Preparation of an NaCl/HCl solution for FaSSGF (1 litre): 2 g of NaCl was dissolved in […] of purified water, the pH was adjusted to 1.6 with HCl, and the mixture was made up to volume with purified water (1 litre). 2) 0.06 g of powder* (FaSSGF—Biorelevant media) was added to about 500 ml of the NaCl/HCl solution at room temperature and made up to volume (1 l) with the NaCl/HCl solution to obtain a clear, ready-for-use liquid. *Final sodium taurocholate 0.08 mM, final lecithin 0.02 mM

Row | Structure (SMILES) | fraction which reaches the systemic circulation [1] | oral absorption [1] | solubility [2]
1 | COc1ccc2cc3[n+](cc2c1OC)CCc1cc2c(cc1-3)OCO2 [BBR, Berberine] | 0.36% | ≤ 0.5 % of the administered dose | 
2 | COc1ccc2cc3[n+](cc2c1OC)CCc1cc2c(cc1-3)OCO2 [Reference 1, berberine] |  |  | 113 µg/mL
